Results from ChEMBL document CHEMBL1201862, “PubChem BioAssay data set” (2004).
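Values below derive from 48-hour exposures of cells grown in 96-well plates, with endpoints linearly interpolated between the two concentrations bracketing the appropriate inhibition level. GI50 marks 50% less growth.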 Calls of active or inactive are those of the source. Rule as the data show it: active = GI50 up to about 1.1 µM and inactive = higher.

Key:
Experiment in all cases: NCI-60 cell line screen, 48 h
NCI-H226 = tested on: NCI-H226
OVCAR-5 = tested on: OVCAR-5
UACC-257 = tested on: UACC-257
HL-60 = tested on: HL-60
CCRF-CEM = tested on: CCRF-CEM
OVCAR-3 = tested on: OVCAR-3
NCI-H23 = tested on: NCI-H23
TK-10 = tested on: TK-10
SNB-19 = tested on: SNB-19
HOP-62 = tested on: HOP-62
SK-OV-3 = tested on: SK-OV-3
SF-539 = tested on: SF-539
OVCAR-8 = tested on: OVCAR-8
SK-MEL-2 = tested on: SK-MEL-2
M14 = tested on: M14
MOLT-4 = tested on: MOLT-4
OVCAR-4 = tested on: OVCAR-4
U-251 = tested on: U-251
K562 = tested on: K562
HT-29 = tested on: HT-29

Row | SMILES | GI50 (NCI-H226) | GI50 (OVCAR-5) | GI50 (UACC-257) | GI50 (HL-60) | GI50 (CCRF-CEM) | GI50 (OVCAR-3) | GI50 (NCI-H23) | GI50 (TK-10) | GI50 (SNB-19) | GI50 (HOP-62) | GI50 (SK-OV-3) | GI50 (SF-539) | GI50 (OVCAR-8) | GI50 (SK-MEL-2) | GI50 (M14) | GI50 (MOLT-4) | GI50 (OVCAR-4) | GI50 (U-251) | GI50 (K562) | GI50 (HT-29)
1 | COc1ccc2cc1Oc1ccc(cc1)CC1c3c(cc(OC)c4c3Oc3cc5c(cc3O4)CCNC5C2)CCN1C (centres undefined) | 5.52 µM (inactive) | 3.6 µM (inactive) | 1.67 µM (inactive) | 1.84 µM (inactive) | 1.24 µM (inactive) | 2.69 µM (inactive) | 2.06 µM (inactive) | 1.86 µM (inactive) | 2 µM (inactive) | 2.2 µM (inactive) | 4.67 µM (inactive) | 1.7 µM (inactive) | 1.77 µM (inactive) | 1.84 µM (inactive) | 2.58 µM (inactive) | 1.46 µM (inactive) | 2.33 µM (inactive) | – | – | –
2 | O=C(NC(Cc1ccc(Br)cc1)C(=O)O)c1ccc(I)cc1 (centres undefined) | > 100 µM (inactive) | > 100 µM (inactive) | > 100 µM (inactive) | > 100 µM (inactive) | > 72.9 µM (inactive) | > 69.7 µM (inactive) | > 100 µM (inactive) | – | > 81.3 µM (inactive) | > 100 µM (inactive) | > 100 µM (inactive) | > 100 µM (inactive) | > 100 µM (inactive) | > 100 µM (inactive) | – | > 69.5 µM (inactive) | 75.3 µM (inactive) | > 95.3 µM (inactive) | > 100 µM (inactive) | > 100 µM (inactive)
3 | S=P1(Sc2ccccc2)Oc2ccc3ccccc3c2-c2c(ccc3ccccc23)O1 | > 100 µM (inactive) | > 100 µM (inactive) | > 100 µM (inactive) | > 77.4 µM (inactive) | > 100 µM (inactive) | 70 µM (inactive) | > 100 µM (inactive) | – | > 100 µM (inactive) | > 100 µM (inactive) | > 100 µM (inactive) | > 100 µM (inactive) | > 100 µM (inactive) | > 100 µM (inactive) | – | > 82.6 µM (inactive) | > 100 µM (inactive) | > 95.5 µM (inactive) | 80.7 µM (inactive) | 51.5 µM (inactive)
4 | O=C(CSCC(=O)N/N=C/c1cccc(C(F)(F)F)c1)N/N=C/c1cccc(C(F)(F)F)c1 | > 100 µM (inactive) | > 100 µM (inactive) | > 100 µM (inactive) | > 100 µM (inactive) | – | – | > 100 µM (inactive) | > 100 µM (inactive) | > 100 µM (inactive) | > 100 µM (inactive) | > 100 µM (inactive) | > 100 µM (inactive) | 2.9 µM (inactive) | > 100 µM (inactive) | > 100 µM (inactive) | – | – | – | > 100 µM (inactive) | > 100 µM (inactive)
5 | Cc1[nH]c(=O)nc(S)c1C(=O)Nc1cccc2cc3ccccc3cc12 | > 100 µM (inactive) | > 100 µM (inactive) | – | > 100 µM (inactive) | > 100 µM (inactive) | > 100 µM (inactive) | > 100 µM (inactive) | > 100 µM (inactive) | > 100 µM (inactive) | > 100 µM (inactive) | > 100 µM (inactive) | – | > 100 µM (inactive) | > 100 µM (inactive) | > 100 µM (inactive) | > 100 µM (inactive) | > 100 µM (inactive) | > 100 µM (inactive) | > 100 µM (inactive) | > 100 µM (inactive)
6 | Nc1nc2c(c(-c3ccc(F)cc3)n1)COC/C2=C\c1ccc(F)cc1 | 27.5 µM (inactive) | > 100 µM (inactive) | 45.6 µM (inactive) | 39.1 µM (inactive) | 52.5 µM (inactive) | 51.4 µM (inactive) | 45.6 µM (inactive) | 30.1 µM (inactive) | 24.8 µM (inactive) | 34.6 µM (inactive) | > 100 µM (inactive) | > 100 µM (inactive) | 58.2 µM (inactive) | > 100 µM (inactive) | > 100 µM (inactive) | 51.2 µM (inactive) | > 100 µM (inactive) | 15.4 µM (inactive) | 35.6 µM (inactive) | 15.8 µM (inactive)
7 | CCn1nc(C)c2c1C(=O)NC(C)C(=O)N2 (centres undefined) | – | > 100 µM (inactive) | > 100 µM (inactive) | – | – | > 100 µM (inactive) | > 100 µM (inactive) | > 100 µM (inactive) | > 100 µM (inactive) | – | > 100 µM (inactive) | > 100 µM (inactive) | > 100 µM (inactive) | – | > 100 µM (inactive) | – | > 100 µM (inactive) | > 100 µM (inactive) | – | > 100 µM (inactive)
8 | CC1(O)C2(c3ccccc3)CCC[N+]1(C)CC2 (centres undefined) | > 100 µM (inactive) | > 100 µM (inactive) | > 100 µM (inactive) | > 100 µM (inactive) | > 100 µM (inactive) | > 100 µM (inactive) | > 100 µM (inactive) | > 100 µM (inactive) | > 100 µM (inactive) | > 100 µM (inactive) | > 100 µM (inactive) | – | > 100 µM (inactive) | > 100 µM (inactive) | > 100 µM (inactive) | > 100 µM (inactive) | > 100 µM (inactive) | > 100 µM (inactive) | > 100 µM (inactive) | > 100 µM (inactive)
9 | COc1cc(C2S/C(=C/c3ccccc3)C(=O)N2c2ccc(NC(C)=O)cc2)cc(OC)c1OC (centres undefined) | – | 28 µM (inactive) | 37.2 µM (inactive) | – | 0.319 µM (active) | – | 20 µM (inactive) | 37.2 µM (inactive) | 38.1 µM (inactive) | 30.4 µM (inactive) | 35.2 µM (inactive) | – | 18.5 µM (inactive) | 0.71 µM (active) | 19.5 µM (inactive) | 4.61 µM (inactive) | 19.3 µM (inactive) | 15.6 µM (inactive) | 16 µM (inactive) | 13.2 µM (inactive)
